Test system: M109 murine lung cancer
Assay: Growth of M109 murine lung cancer in BALB/c mice
Type: in vivo, mouse
Conditions: for Tumour size, Day 8 / Tumour size, Day 11 / Tumour size, Day 13 / Tumour size, Day 15 / Tumour size, Day 20: taxol 30 mg/kg i.p., ALC 100 mg/kg os; for Tumour size, Day 8: day 8 post-inoculation; for Tumour size, Day 11: day 11 post-inoculation; for Tumour size, Day 13: day 13 post-inoculation; for Tumour size, Day 15: day 15 post-inoculation; for Tumour size, Day 20: day 20 post-inoculation
Protocol: Each ampoule of ALC is dissolved in 4 ml of the solvent provided (solution O). To be precise, 1.6 ml of solution O are brought to 40 ml with sterile buffer solution (PBS, Sigma P-4417) and then administered orally (100 mg/kg/20 ml).
At the time of use, the 12 mg/ml solution is diluted 1:4 with saline in phosphate buffer (PBS) (SIGMA,) and injected i.p. (30 mg/kg/ 10 ml).
Animals: 60 female Balb/c mice weighing 18 g (Harlan).
M109 tumour cells isolated from solid tumour.
The procedure described by Kedar E., B. Ikejiri, G. D. Bannard and R. B. Herberman (Eur. J. Cancer Clin. Oncol. 18; 991: 1982) is adopted with modifications. One Balb/c mouse (donor) was sacrificed by cervical dislocation, and after washing its back with denatured alcohol, the dorsal skin was cut longitudinally into two flaps which were detached to remove the tumour mass. The latter was placed on sterile gauze, where it was freed of connective tissue adhesions and of the necrotic and haemorrhagic parts. The study tissue was placed in a plate containing PBS with Ca^++ and Mg^++ (Gibco) at pH 7.2 and cold, broken down into pieces measuring 2-3 mm and re-suspended in a solution (15 ml solution/g tumour) of PBS with Ca^++ and Mg^++, pH 7.2m containing 2 mg/ml trypsin (type III. 10000 U/mg protein, Sigma-Aldrich), 2 mg/ml collagenase (type I-S 180 U/mg solid, Sigma), 0.2 mg/ml DNAse (type I 1548 U/mg protein. Sigma) and 25 μg/ml gentamicin (Sigma) and incubated at 37° C. for 15 minutes under constant stirring. The cell suspension was then homogenised with the aid of a potter (B. Braun) for 2 minutes, incubated at 37° C. for 10 minutes and aspirated gently a number of times with a syringe with a No. 21 sterile needle. After addition of 30 ml of RPMI-1640 (Eurobio) containing 10% FBS (Eurobio) maintained at 4° C. the cell suspension was filtered on sterile gauze and then centrifuged at 700 g for 10 minutes. The cell pellet was re-suspended gently in RPMI-1640 containing 10% FBS and 0.2 mg/ml DNAse (Sigma) and then centrifuged at 700 g for 10 minutes. The pellet was consecutively subjected to two washings with RPMI-1640; at the end of the last washing, the pellet was re-suspended gently in RPMI-1640 so as to perform the count to establish the cell concentration.
Inoculation conditions: 60 unanaesthetised Balb/c mice weighing approximately 18 g (Harlan) received i.m. injections of 3×10^5 M109 lung cancer cells in 0.1 ml of RPMI-1640 (Sigma) in the right rear paw.
Treatment schedule: for the purposes of evaluating tumour size in the experimental study groups, each consisting of 15 Balb/c mice, 3×10^5 M109 lung cancer cells were inoculated, and the study molecules were administered at the scheduled times. […] The vehicle diluted 1:4 with PBS from the mother solution was administered i.p. on days 8, 10, 12 and 14.
The tumour mass is calculated on the basis of the measurements of the two dimensions (length and width), expressed in mm. according to the following formula: [formula]
If we consider conventionally a tumour density equal to 1, the result is that the tumour volume expressed in mm^3 is equal to the weight of the tumour expressed in mg.

SMILES | Tumour size, Day 8 | Tumour size, Day 11 | Tumour size, Day 13 | Tumour size, Day 15 | Tumour size, Day 20 | effect on the anticancer action of taxol, inhibition of the tumour mass (in words) (ALC 100 mg/kg os with taxol 30 mg/kg i.p.)
CC(=O)O[C@H](CC(=O)[O-])C[N+](C)(C)C [Vehicle + ALC, acetyl L-carnitine] | 567 mm^3 | 959 mm^3 | 1289 mm^3 | 1779 ± mm^3 | 2251 mm^3 | –
CC(=O)O[C@H]1C(=O)[C@@]2(C)[C@H]([C@H](OC(=O)c3ccccc3)[C@]3(O)C[C@H](OC(=O)[C@H](O)[C@@H](NC(=O)c4ccccc4)c4ccccc4)C(C)=C1C3(C)C)[C@]1(OC(C)=O)CO[C@@H]1C[C@@H]2O [Taxol, paclitaxel, reference compound] | 539 mm^3 | 662 ± mm^3 | 622 ± mm^3 | 857 ± mm^3 | 1085 ± mm^3 | –
CC(=O)O[C@H](CC(=O)[O-])C[N+](C)(C)C [ALC, acetyl L-carnitine] | – | – | – | – | – | does not interfere with the anticancer action of taxol

From patent US6610699B2, “Use of L-carnitine and its alkanoyl derivatives in the preparation of medicaments with anticancer activity” (Sigma-Tau Industrie Farmaceutiche Riunite S.p.A., priority 1998, dated 2003)
